Experimental data published in patent US8071744B2, “TRP/HIS exchange and kynurenin induced TRP transport” (Carnegie Institution of Washington, priority 2007, dated 2011).

Columns and labels:
COS-7 cells [1] = experiment: Ratio imaging of intracellular tryptophan in perfused COS-7 cells expressing FLIPW-CTYT (uptake and exchange); assay type: cell-based, monkey; conditions: for effect on the uptake rate of 100 μM L-tryptophan: inhibitors at 5 mM; for tryptophan export from tryptophan-preloaded cells (counterexchange): extracellular amino acids at 100 μM, DL-HK 200-1000 μM
Method: (§1) Tissue culture and transfection. For cytosolic expression in COS-7 cells, the gene encoding CTYT was amplified by PCR with primers encoding unique BamHI and EcoRI restriction sites at the 5′ and 3′ end, respectively, and cloned into BamHI/EcoRI digested peDNA3.1(+) vector (Invitrogen), resulting in plasmid pTK222. COS-7 cells were grown in Dulbecco's modified Eagle's medium (high glucose; DMEM, Gibco) with 10% fetal calf serum and 50 μg; ml penicillin and 50 μg/ml streptomycin (Gibco). Cells were cultured at 37° C. and 5% CO2. For imaging, cells were cultured in 8-well LabTekII German tissue culture glass slides (Nalg Nunc International) and transiently transfected at 50-70% confluence using Lipofectamine 2000 Reagent (Invitrogen) in Opti-MEM I reduced serum medium (Gibco): After transfection, cells were cultured for 16 hours in Opti-MEM followed by 3 hours in DMEM prior to imaging.
Imaging. Ratio imaging was performed on an inverted fluorescence microscope (DM IRE2, Leica) with a Quant EM digital camera (Photometrics) and 20× oil immersion, 63× water immersion lenses (HC PL APO 20×/0.7 or HCX PL APO, Leica, Germany). Dual emission intensity ratios were simultaneously recorded using a DualView with an OI-5-EM filter set (eCFP 480/30; eYFP 535/40; Optical 17 Insights, USA) and Metafluor 6.3r6 software (Molecular Devices, USA). A Sutter Instruments Lambda DG4 provided excitation. Images were acquired within the linear detection range of the camera and exposure times varied between 50 to 200 ms, depending on the expression level, with software binning between 2 and 3. […] Cells were perfused with Tyrode's buffer at flow rates of 1.0 ml/min in a vacuum chamber with a total volume of 0.1 ml. Inhibitors BCH and MeIAB were used at 5 mM concentrations. For determination of the substrate specificity of the tryptophan exchange, all 20 amino acids were tested at 100 μM concentrations.

FLIPW-CTY = target: T1, FLIPW-CTY (Escherichia coli, UniProt P0A881); experiment: In vitro FRET titration of FLIPW-CTY with tryptophan substrates; assay type: binding, E. coli
T1 construct: fused on or other part: eCFP at the N-terminus and Venus (YFP variant) at the C-terminus as FRET reporter handles; pRSETb vector leader; Gateway att-derived linkers
Method: (§2) In vitro characterization of FLIPW and FLIPpur sensors. […] The eCFP emission used for the ratio calculation was determined at 485 nm. Protein was diluted to give Venus/eYFP readouts of 20,000 to 30,000 at a manual gain between 70-75. By using the change in FRET ratio upon binding of ligand, affinity constants (Kd) were determined by fitting the titration curves to a single-site-binding isotherm: R=Rapo+(Rsat−Rapo)·(n·[L])/(Kd+[L]) with [L], ligand concentration; n, number of equal binding sites; R, ratio; Rapo, ratio in the absence of ligand; and Rsat, ratio at saturation with ligand. Three independent protein preparations were analyzed and each protein preparation was analyzed in triplicate.

unmodified TrpR = unmodified TrpR (Escherichia coli, UniProt P0A881); conditions: cited from earlier work
FLIPW-CTYT = target: T2, FLIPW-CTYT (Escherichia coli, UniProt P0A881); experiment: In vitro FRET titration of FLIPW-CTYT with tryptophan substrates and kynurenines; assay type: binding, E. coli; conditions: data not shown
T2 construct: Venus (YFP variant); made in house; host or cells: E. coli BL21(DE3)gold
Method: as §2

LAT1 = LAT1 (Homo sapiens, UniProt Q01650); conditions: oocytes; sum of free, incorporated and degraded tryptophan; cited from earlier work
COS-7 cells [2] = conditions: read-out: apparent KM for combined transport and metabolism; 96-well microplate, Michaelis-Menten fit of FRET increase rate, 0.05-25 μM L-tryptophan
Method: as §1

KB cells = experiment: FRET imaging of intracellular tryptophan in interferon-gamma treated KB cells; assay type: cell-based, human; conditions: IFNγ 500 U/ml, perfusion with Tyrode's buffer
Method: It was also assessed whether affecting the metabolism of tryptophan could be monitored using the FRET nanosensors. The induction of indoleamine 2,3-dioxygenase (IDO) by interferon-gamma in KB cells has been described by Ozaki et al. (Proc. Natl. Acad. Sci. U.S.A. (1988)85: 1242-1246). Indoleamine 2,3-dioxygenase degrades tryptophan to formyl-kynurenine in the cytosol. Accordingly, KB cells were seeded at 10%, 25%, 50% dilution (derived from a suspension that was from ˜90% confluent plate). Interferon gamma (IFNγ) was added at 500 and 1000 U/ml. KB cells used as a control (i.e. no IFNγ) were seeded at 10% dilution only. KB cells were incubated in growth medium (MEM-alpha, 10° A FBS (fetal bovine serum), penicillin/streptomycin) and then in OPTIMEM for 4 days prior to imaging. Cells were transfected (in OPTIMEM) with the pTK222c construct 1 day prior to imaging. IFNγ was maintained during transfection in OPTIMEM. Three hours prior to imaging, the cells were incubated in growth medium (containing IFNγ in the respective cultures). After three hours, the growth medium was exchanged with Tyrode's solution and the cells were kept in incubation chamber until analysis. The cells were perfused with 1 μM, 5 μM, 50 μM, and 100 μM L-tryptophan in Tyrode's solution.

Chain of LAT1 (Q01650 whole entry): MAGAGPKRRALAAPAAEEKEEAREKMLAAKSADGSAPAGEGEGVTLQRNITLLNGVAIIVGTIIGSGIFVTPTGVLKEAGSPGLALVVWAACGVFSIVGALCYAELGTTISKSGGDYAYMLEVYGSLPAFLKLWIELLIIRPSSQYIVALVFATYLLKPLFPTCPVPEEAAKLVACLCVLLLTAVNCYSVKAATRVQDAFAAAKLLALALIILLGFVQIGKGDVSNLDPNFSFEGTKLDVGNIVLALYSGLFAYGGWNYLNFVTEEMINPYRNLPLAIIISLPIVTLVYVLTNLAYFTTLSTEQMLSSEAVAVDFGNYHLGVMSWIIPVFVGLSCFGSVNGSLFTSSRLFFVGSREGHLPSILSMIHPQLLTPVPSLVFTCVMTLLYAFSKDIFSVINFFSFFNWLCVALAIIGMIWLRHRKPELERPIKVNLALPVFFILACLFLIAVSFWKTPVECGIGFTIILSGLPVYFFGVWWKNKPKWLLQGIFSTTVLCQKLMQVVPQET

Molecule: CNC(C)(C)C(=O)O
- effect on the uptake rate of 100 μM L-tryptophan (COS-7 cells [1]): did not decrease uptake rates

Molecule: NC1(C(=O)O)CC2CCC1C2 (stereo not drawn) [BCH, 2-aminobicyclo-(2,2,1)-heptane-2-carboxylic acid]
- effect on the uptake rate of 100 μM L-tryptophan (COS-7 cells [1]): decreased the uptake of tryptophan

Molecule: N[C@H](Cc1c[nH]c2ccccc12)C(=O)O [D-tryptophan]
- concentration for decrease of FRET ratio relative to L-tryptophan (FLIPW-CTY): about 5 fold
- reduced affinity of unmodified TrpR compared to L-tryptophan (unmodified TrpR): 20 fold

Molecule: Nc1c(O)cccc1C(=O)O [HAA, hydroxy-anthranilic acid]
- FLIPW-CTYT response or interference with tryptophan binding in vitro (FLIPW-CTYT): did not result in a FLIPW-CTYT response or interfere with tryptophan binding to the sensor
- tryptophan export from tryptophan-preloaded cells (counterexchange) (COS-7 cells [1]): did not result in tryptophan export

Molecule: Nc1c(O)cccc1C(=O)CC(N)C(=O)O (stereo not drawn) [HK, 3-hydroxy-kynurenine]
- FLIPW-CTYT response or interference with tryptophan binding in vitro (FLIPW-CTYT): did not result in a FLIPW-CTYT response or interfere with tryptophan binding to the sensor
- tryptophan export from tryptophan-preloaded cells (counterexchange) (COS-7 cells [1]): resulted in reduction of the fluorophore emission ratios in the COS-7 cells, evidencing tryptophan export

Molecule: Nc1ccccc1C(=O)CC(N)C(=O)O (stereo not drawn) [K, kynurenine]
- FLIPW-CTYT response or interference with tryptophan binding in vitro (FLIPW-CTYT): did not result in a FLIPW-CTYT response or interfere with tryptophan binding to the sensor
- tryptophan export from tryptophan-preloaded cells (counterexchange) (COS-7 cells [1]): resulted in reduction of the fluorophore emission ratios in the COS-7 cells, evidencing tryptophan export

Molecule: N[C@@H](Cc1c[nH]c2ccccc12)C(=O)O [L-tryptophan]
- affinity of LAT1 for tryptophan uptake (LAT1): 21.4 µM
- Km (COS-7 cells [2]): 0.88 ± 0.27 µM
- affinity of the cells for combined uptake and metabolism of tryptophan (COS-7 cells [1]; perfusion imaging, Michaelis-Menten fit): 2.6 ± 1.1 µM

Molecule: N[C@@H](Cc1c[nH]cn1)C(=O)O [histidine, L-histidine]
- tryptophan export from tryptophan-preloaded cells (counterexchange) (COS-7 cells [1]): able to promote tryptophan export

Molecule: CC[C@H](C)[C@H](N)C(=O)O [isoleucine]
- tryptophan export from tryptophan-preloaded cells (counterexchange) (COS-7 cells [1]): able to promote tryptophan export

Molecule: CC(C)C[C@H](N)C(=O)O [leucine]
- tryptophan export from tryptophan-preloaded cells (counterexchange) (COS-7 cells [1]): able to promote tryptophan export

Molecule: CSCC[C@H](N)C(=O)O [methionine]
- tryptophan export from tryptophan-preloaded cells (counterexchange) (COS-7 cells [1]): able to promote tryptophan export

Molecule: N[C@@H](Cc1ccccc1)C(=O)O [phenylalanine]
- tryptophan export from tryptophan-preloaded cells (counterexchange) (COS-7 cells [1]): able to promote tryptophan export

Molecule: N[C@@H](Cc1ccc(O)cc1)C(=O)O [tyrosine]
- tryptophan export from tryptophan-preloaded cells (counterexchange) (COS-7 cells [1]): able to promote tryptophan export

Molecule: CC(C)[C@H](N)C(=O)O [valine]
- tryptophan export from tryptophan-preloaded cells (counterexchange) (COS-7 cells [1]): able to promote tryptophan export

B1: IFNγ: cytokine interferon gamma, induces indoleamine 2,3-dioxygenase in KB cells (protein, UniProt P01579 24-161, looked up)
Interferon gamma: QDPYVKEAENLKKYFNAGHSDVADNGTLFLGILKNWKEESDRKIMQSQIVSFYFKLFKNFKDDQSIQKSVETIKEDMNVKFFNSNKKKRDDFEKLTNYSVTDLNVQRKAIHELIQVMAELSPAAKTGKRKRSQMLFRG
- effect on intracellular tryptophan concentration (KB cells): lower the intracellular tryptophan concentration
